Measured values taken from ChEMBL document CHEMBL1201862, “PubChem BioAssay data set” (2004).
Calls of active or inactive are those of the source.

Experiments:
[1] = microbe, parasite or virus in culture; type: functional; details: Mycobacterium tuberculosis
[2] = growth suppression of beta-catenin-knockout colon cells, dose response, cell-based, HCT116, human colon tumor (AID 1045); type: functional;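 note: HCT116 colon tumor cells with beta catenin knocked out; cells exposed to compound for 60 hours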
[3] = target: Neurotensin receptor type 1 (Homo sapiens, UniProt P30989); type: functional;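 note: Image-based confirmatory dose-response assay measuring agonist activity at NTR1; NTR1-expressing U2OS osteosarcoma cells imaged for beta-arrestin GFP spot formation; agonist potency where compounds increase beta-arrestin recruitment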
[4] = Luminescence Cell-Based Dose Retest to Confirm Inhibitors of Cancer Stem Cells. [Related pubchem assays (depositor defined):AID2717, AID2721]; type: functional; details: Homo sapiens
[5] = growth suppression of PTEN-null colon cells, dose response, cell-based, HCT116 PTEN knockout (AID 1047); type: functional;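 note: HCT116 colon tumor cells with PTEN knocked out; cells exposed to compound for 60 hours before readout; potency for loss of cell viability measured by luminescence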
[6] = target: T1, Zinc finger protein mex-5 (Caenorhabditis elegans, UniProt Q9XUB2); test: MEX-5/TCR-2 RNA interaction inhibitors, dose response, biochemical, C. elegans, fluorescence polarization (AID 1960)
T1 sequence (Q9XUB2 whole entry): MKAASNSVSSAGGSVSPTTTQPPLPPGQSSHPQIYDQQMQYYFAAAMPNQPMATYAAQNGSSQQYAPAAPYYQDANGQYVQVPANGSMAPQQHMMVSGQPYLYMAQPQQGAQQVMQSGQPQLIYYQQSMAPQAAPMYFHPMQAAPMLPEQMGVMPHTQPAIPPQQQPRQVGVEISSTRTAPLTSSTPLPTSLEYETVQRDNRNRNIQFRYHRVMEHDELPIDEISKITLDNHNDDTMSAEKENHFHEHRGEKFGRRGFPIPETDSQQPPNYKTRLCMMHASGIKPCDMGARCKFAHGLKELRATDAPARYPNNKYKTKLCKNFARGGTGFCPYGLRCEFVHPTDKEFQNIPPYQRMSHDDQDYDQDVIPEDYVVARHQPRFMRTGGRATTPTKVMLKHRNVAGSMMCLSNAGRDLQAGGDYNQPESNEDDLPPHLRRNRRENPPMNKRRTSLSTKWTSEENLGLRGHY

[7] = target: DNA dC->dU-editing enzyme APOBEC-3G (Homo sapiens, UniProt Q9HC16); test: Dose Response confirmation of small molecule APOBEC3G DNA Deaminase Inhibitors via a fluorescence-based single-stranded DNA deaminase assay. [Related pubchem assays (depositor defined):AID493012, AID493028]; type: functional
[8] = target: Beta-galactosidase (Escherichia coli, UniProt Q8VNN2); test: beta-galactosidase enzyme inhibitors and activators, dose response, artefact control for CCR6 antagonist project, biochemical, E. coli enzyme, set 3 (AID 504712); type: functional
[9] = target: Induced myeloid leukemia cell differentiation protein Mcl-1 (Homo sapiens, UniProt Q07820); type: functional
[10] = target: Perilipin-1/ABHD5 (Homo sapiens, UniProt O60240+Q8WTS1); test: Luminescence-based biochemical high throughput dose response assay for inhibitors of the interaction of the lipase co-activator protein, abhydrolase domain containing 5 (ABHD5) with perilipin-1 (PLIN1) (2K validation set). [Related pubchem assays (depositor defined):AID493027, AID493057]
[11] = target: T2, RNA-binding protein pos-1 (Caenorhabditis elegans, UniProt G5EF15); test: inhibitors of POS-1/mex-3 RNA binding, dose response, biochemical, fluorescence polarization (AID 1964);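 note: purified POS-1 fused to maltose binding protein made in E. coli; potency of compounds blocking POS-1 binding to fluorescent RNA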
T2 sequence (G5EF15 whole entry): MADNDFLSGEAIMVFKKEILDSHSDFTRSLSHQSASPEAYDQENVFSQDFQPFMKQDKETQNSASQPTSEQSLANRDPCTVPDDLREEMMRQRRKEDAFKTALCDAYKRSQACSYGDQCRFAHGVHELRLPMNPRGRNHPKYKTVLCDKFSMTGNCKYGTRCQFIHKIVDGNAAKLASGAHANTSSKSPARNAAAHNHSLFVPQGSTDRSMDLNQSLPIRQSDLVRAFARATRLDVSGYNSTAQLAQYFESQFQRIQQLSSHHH

[12] = target: 1-acylglycerol-3-phosphate O-acyltransferase ABHD5/Perilipin-5 (Homo sapiens, UniProt Q00G26+Q8WTS1); test: Luminescence-based biochemical high throughput dose response assay for inhibitors of the interaction of the lipase co-activator protein, abhydrolase domain containing 5 (ABHD5) with perilipin-5 (MLDP; PLIN5) (2K validation set). [Related pubchem assays (depositor defined):AID493035, AID493241]
[13] = target: Hexokinase HKDC1 (Homo sapiens, UniProt Q2TB90); test: HKDC1 hexokinase inhibitors, dose response, biochemical, W721R variant (AID 504729); type: functional
[14] = target: DNA dC->dU-editing enzyme APOBEC-3A (Homo sapiens, UniProt P31941); test: APOBEC3A DNA deaminase inhibitors, dose response, biochemical (AID 504722); type: functional
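Throughout, for AC50: cells exposed to compound for roughly 70 hours or longer before luminescence read.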

Chain of Beta-galactosidase (Q8VNN2 whole entry): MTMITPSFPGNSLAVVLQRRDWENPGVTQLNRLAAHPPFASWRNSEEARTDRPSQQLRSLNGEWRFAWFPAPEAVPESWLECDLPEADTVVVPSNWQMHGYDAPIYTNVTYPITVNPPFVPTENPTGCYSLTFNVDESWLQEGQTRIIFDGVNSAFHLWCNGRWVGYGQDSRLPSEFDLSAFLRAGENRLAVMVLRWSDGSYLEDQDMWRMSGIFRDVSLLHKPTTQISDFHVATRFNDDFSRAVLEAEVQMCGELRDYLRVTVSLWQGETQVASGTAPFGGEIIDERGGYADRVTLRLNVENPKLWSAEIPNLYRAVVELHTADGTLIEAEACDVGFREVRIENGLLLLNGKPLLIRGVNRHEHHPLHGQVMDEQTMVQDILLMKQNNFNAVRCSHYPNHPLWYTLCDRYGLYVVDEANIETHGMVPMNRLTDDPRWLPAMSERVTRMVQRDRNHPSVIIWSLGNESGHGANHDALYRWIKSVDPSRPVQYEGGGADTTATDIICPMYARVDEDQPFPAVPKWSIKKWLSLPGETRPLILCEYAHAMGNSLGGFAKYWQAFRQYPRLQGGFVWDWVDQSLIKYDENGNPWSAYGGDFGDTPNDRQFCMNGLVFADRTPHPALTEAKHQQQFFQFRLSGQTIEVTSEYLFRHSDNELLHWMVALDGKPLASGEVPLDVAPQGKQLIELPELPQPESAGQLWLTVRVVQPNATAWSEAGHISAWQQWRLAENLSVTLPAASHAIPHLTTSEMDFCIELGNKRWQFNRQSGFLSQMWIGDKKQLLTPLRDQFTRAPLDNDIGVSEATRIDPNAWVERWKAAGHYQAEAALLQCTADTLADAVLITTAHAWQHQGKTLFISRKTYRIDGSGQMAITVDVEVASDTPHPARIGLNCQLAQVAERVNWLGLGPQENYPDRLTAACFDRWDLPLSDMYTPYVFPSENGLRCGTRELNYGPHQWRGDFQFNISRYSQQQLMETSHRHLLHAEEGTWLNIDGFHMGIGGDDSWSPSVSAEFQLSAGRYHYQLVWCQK
Chain of Neurotensin receptor type 1 (P30989 whole entry): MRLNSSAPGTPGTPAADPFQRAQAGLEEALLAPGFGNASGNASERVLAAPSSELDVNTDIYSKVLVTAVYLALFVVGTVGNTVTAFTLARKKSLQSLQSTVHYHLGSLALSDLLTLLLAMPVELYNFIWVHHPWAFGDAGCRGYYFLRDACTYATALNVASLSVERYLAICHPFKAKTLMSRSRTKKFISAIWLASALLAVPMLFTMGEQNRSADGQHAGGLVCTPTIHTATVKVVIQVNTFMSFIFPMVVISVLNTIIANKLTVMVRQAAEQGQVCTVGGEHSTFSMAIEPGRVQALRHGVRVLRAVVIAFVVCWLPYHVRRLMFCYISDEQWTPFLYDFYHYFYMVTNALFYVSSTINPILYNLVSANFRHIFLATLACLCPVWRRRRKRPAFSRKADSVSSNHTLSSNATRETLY
Chain of DNA dC->dU-editing enzyme APOBEC-3G (Q9HC16 whole entry): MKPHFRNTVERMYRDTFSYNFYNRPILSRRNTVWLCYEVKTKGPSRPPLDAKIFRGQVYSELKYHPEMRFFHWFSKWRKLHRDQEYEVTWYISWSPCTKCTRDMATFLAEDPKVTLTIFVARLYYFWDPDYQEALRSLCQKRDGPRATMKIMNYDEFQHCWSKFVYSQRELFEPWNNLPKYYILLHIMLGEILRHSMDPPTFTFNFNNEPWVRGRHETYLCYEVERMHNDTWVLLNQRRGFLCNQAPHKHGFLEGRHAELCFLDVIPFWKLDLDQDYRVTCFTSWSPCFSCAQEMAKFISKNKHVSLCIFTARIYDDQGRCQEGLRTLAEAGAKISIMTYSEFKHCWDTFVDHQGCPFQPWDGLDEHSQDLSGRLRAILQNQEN
Chain of Induced myeloid leukemia cell differentiation protein Mcl-1 (Q07820 whole entry, the tested form may be a part): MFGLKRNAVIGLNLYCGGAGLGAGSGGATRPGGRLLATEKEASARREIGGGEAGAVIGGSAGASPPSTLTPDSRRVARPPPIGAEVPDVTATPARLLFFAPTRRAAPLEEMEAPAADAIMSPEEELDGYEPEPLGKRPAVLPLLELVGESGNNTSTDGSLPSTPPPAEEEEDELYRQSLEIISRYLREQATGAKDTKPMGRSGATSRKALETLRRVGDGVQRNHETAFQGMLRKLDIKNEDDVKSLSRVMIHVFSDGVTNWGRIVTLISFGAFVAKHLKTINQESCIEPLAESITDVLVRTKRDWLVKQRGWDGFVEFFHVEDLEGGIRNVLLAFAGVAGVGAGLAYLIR
Chain of DNA dC->dU-editing enzyme APOBEC-3A (P31941 whole entry): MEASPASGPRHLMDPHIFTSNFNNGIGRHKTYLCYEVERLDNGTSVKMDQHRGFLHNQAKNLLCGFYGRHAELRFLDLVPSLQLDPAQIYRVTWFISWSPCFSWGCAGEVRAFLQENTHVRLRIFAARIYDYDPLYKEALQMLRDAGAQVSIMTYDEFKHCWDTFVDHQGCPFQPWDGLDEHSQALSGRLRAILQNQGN
Chain of Perilipin-1/ABHD5 (Q8WTS1 whole entry, the tested form may be a part): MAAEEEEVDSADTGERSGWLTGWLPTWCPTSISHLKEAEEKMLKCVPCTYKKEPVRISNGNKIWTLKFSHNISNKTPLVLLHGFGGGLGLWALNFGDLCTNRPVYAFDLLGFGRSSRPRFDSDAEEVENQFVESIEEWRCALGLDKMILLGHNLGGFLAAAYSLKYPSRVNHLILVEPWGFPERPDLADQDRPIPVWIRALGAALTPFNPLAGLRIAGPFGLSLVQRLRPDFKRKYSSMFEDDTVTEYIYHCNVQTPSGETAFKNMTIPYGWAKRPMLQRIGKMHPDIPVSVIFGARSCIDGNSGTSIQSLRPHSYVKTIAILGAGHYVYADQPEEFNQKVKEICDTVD
Chain of Perilipin-1/ABHD5 (O60240 whole entry, the tested form may be a part): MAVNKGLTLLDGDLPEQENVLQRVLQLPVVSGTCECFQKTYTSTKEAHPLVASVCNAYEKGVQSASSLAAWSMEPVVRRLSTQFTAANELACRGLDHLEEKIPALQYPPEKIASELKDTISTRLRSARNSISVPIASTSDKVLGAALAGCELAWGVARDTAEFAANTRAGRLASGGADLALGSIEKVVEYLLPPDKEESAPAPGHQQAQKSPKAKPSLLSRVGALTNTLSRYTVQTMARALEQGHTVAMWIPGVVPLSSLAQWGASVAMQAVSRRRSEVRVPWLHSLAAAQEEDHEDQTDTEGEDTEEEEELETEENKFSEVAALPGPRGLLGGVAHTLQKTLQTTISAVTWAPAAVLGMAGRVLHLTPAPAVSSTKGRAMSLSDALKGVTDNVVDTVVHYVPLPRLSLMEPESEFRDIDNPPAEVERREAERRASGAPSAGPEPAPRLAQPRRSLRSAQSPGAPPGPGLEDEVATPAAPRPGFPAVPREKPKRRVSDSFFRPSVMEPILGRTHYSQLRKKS
Chain of 1-acylglycerol-3-phosphate O-acyltransferase ABHD5/Perilipin-5 (Q00G26 whole entry, the tested form may be a part): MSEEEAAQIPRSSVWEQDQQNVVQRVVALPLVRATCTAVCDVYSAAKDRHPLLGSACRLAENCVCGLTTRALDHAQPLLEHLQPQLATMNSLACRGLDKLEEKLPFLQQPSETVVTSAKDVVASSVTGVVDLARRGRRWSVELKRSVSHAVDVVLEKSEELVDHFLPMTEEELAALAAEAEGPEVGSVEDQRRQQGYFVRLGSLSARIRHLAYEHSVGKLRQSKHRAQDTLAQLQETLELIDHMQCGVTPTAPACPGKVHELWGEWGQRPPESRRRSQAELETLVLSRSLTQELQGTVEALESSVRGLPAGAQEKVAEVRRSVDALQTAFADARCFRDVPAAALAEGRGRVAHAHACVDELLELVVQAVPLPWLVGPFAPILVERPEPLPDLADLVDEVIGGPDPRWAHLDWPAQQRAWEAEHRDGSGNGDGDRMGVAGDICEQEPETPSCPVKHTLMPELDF
Chain of 1-acylglycerol-3-phosphate O-acyltransferase ABHD5/Perilipin-5 (Q8WTS1 whole entry, the tested form may be a part): as the sequence (Q8WTS1 whole entry, the tested form may be a part) above
Chain of Hexokinase HKDC1 (Q2TB90 whole entry): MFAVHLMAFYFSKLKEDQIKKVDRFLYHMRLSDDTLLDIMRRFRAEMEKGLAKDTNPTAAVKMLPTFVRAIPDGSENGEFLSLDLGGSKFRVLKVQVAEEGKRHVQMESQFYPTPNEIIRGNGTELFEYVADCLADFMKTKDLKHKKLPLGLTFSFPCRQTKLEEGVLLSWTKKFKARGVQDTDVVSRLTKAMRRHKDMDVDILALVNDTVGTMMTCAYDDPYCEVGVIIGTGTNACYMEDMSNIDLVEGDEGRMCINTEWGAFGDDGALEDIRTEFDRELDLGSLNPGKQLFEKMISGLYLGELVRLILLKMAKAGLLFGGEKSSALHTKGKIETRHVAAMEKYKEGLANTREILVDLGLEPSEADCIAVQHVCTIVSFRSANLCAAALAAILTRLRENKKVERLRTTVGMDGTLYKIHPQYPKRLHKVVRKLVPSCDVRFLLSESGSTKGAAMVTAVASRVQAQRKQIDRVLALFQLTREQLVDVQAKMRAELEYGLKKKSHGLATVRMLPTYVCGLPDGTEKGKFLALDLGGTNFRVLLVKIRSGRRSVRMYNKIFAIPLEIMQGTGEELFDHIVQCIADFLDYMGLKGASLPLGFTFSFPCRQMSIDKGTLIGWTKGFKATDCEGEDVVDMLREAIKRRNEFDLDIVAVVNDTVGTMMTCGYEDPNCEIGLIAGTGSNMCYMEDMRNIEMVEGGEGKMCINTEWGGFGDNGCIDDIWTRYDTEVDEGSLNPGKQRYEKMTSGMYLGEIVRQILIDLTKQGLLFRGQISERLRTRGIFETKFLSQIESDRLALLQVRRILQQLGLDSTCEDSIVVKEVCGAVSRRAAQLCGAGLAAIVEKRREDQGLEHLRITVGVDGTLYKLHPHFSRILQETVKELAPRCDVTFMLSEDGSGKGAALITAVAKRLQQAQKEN

| Compound | CC50 [1] | EC50 [2] | EC50 [3] | AC50 [4] | EC50 [5] | EC50 [6] | IC50 [7] | IC50 [8] | IC50 [9] | IC50 [10] | EC50 [11] | IC50 [12] | IC50 [13] | IC50 [14] |
| --- | --- | --- | --- | --- | --- | --- | --- | --- | --- | --- | --- | --- | --- | --- |
| c1ccc(CN2CCC(Nc3nc(-c4ccccc4)nc4ccccc34)CC2)cc1 | 20.3 µM (active) | 9.69 µM (active) | 19.6 µM (active) | 5.72 µM (active) | 12.3 µM (active) |  |  |  |  |  |  |  |  |  |
| O=C1C=CC(=O)C(C2=C3C(=O)N(CCc4ccccc4)CC(=O)N3CCC2)=C1 |  |  |  |  |  | 14.9 µM (inconclusive) | 8.15 µM (active) | > 66.6 µM (inactive) | 4.75 µM (not active) | 4.37 µM (active) | 45.9 µM (active) | 5.72 µM (active) | 3.73 µM (active) | > 100 µM (inactive) |
